Laboratory results reported in US12576107B2, “Methods of treating chronic inflammatory diseases” (METIMEDI PHARMACEUTICALS CO., LTD., priority 2018, dated 2026).

Experiments:
[1] = test system: hypoxia inducible factor-1α (HIF-1α); test: Liver fibrosis in vitro experiment, Western blot in LX-2 cells; format: cell-based; details: 2.5 mM, LX-2 cells (human hepatic stellate cell)
Procedure: Human Hepatic Stellate cell line, LX-2, was purchased from Sigma-Aldrich (St Louis, MO, USA). The LX-2 cells were maintained in DMEM containing 2% fetal bovine serum (Life Technologies, Gaithersburg, MD, USA), 100 IU/ml penicillin, and 100 μg/ml streptomycin (Welgene, Daegu, South Korea).
To prepare whole cell lysate, cells were lysed with lysis buffer (1% NP-40, 0.25% sodium deoxycholate, 150 mM NaCl, 1 mM EDTA, 1% Triton X-100, 50 mM Tris-HCl (pH 7.4), 10% Glycerol) with protease inhibitor cocktail (Roche, Basel, Switzerland) and phosphatase inhibitors (NA3VO4 1 mM, NaF 100 mM). Then, protein concentration was measured using the Bicinchoninic acid (BCA) assay kit (Thermo Scientific, Waltham, MA). Whole cell or nuclear lysates were transferred onto polyvinylidene fluoride membranes (Merck Millipore, Billerica, MA, USA). After blocking in 5% non-fat milk (Bio-Rad, Hercules, CA, USA) for 1 h, the membranes were incubated overnight at 4° C. with primary antibody diluted in TBST containing 100 mM Tris-HCl (pH 7.5), 1.5 M NaCl, and 0.5% Tween-20 obtained from Sigma-Aldrich, to which 5% BSA and 0.1% sodium azide (Sigma-Aldrich) had been added. Specific primary antibodies to HIF-1α (1:1000), HIF-2α (1:1000), LDH-A (1:1000), LDH-B (1:1000), TLR-4 (1:1000), NF-κB (1:1000), VEGF (1:1000), α-tubulin (1:1000), Actin (1:1000), and GAPDH (1:5000). […]

[2] = test system: LPS-damaged brain of rats; test: Alzheimer and stroke model, intracranial injection of LPS; format: in vivo, Sprague-Dawley (SD) rats; details: 2 mg/kg daily subcutaneous 21 days
Procedure: (§1) Animals. […] Eight-week old male Sprague-Dawley (SD) rats were obtained from Samtako Co. (Osan, Gyeonggi-do, Republic of Korea) and bred under specific-pathogen-free (SPF) conditions. All animals were maintained in a 12-hour light/dark cycle at 22-25° C. with free access to food and water.
Dissolve 1 mg of LPS powder in 1 ml of saline. Keep the tubes on ice if LPS is going to be used fresh. For long storage, screw cap vials are preferred. The aliquots were stored at −20° C. Calcium lactate was purchased from Sigma Aldrich (St. Louis, MO, USA).
Intracranial injection of LPS. The animals were placed in a small acrylic cage that was coupled with an anesthesia machine that allowed them to breathe freely under gaseous anesthesia (2% isoflurane, Spartanburg, SC, USA). […] The animal fur of head was shaved with an electric clipper, and the skin was swabbed with iodine. LPS was kept it on ice before use. All the surgical materials disinfected with 70% ethanol. Hamilton syringe barrel inner space was cleaned with distilled water and 70% ethanol. The Hamilton syringe was placed in the syringe holder. The animal in the stereotaxic apparatus was placed on horizontal position. A midline incision (about 1 cm) on the skin of head was made with the scalpel. The needle of Hamilton syringe was placed on the bregma. Read the three coordinates (AP: −3.6, LM: 2.0, and DV: −3.8) on the manipulator (in mm) and write them down; this was used for starting point. Slowly, set the DV coordinate of the injection point; this inserts the needle tip into the brain until the injection point. The LPS solution (2 μl) was released at an approximate flow rate of 0.5 μl/min. After the injection, the needle was removed very slowly. The wound area was closed by suturing, and then disinfectant was applied. The rat was marked for further identification.
Immunohistochemistry. Brain tissue was sectioned at 5 μm on cryostat and stained for histological examination. Microscopic images were obtained at 200× magnification. […]

6-OHDA injected rats = test: Parkinson's disease model, desipramine and 6-OHDA injection; format: in vivo, Sprague-Dawley (SD) rats; details: 2 mg/kg daily subcutaneous 21 days; 6-OHDA rats
Procedure: as §1
Desipramine (12.5 mg/kg; noradrenaline transporter blocker; Sigma Aldrich, St. Louis, USA) was dissolved in saline for intraperitoneal injection. 6-OHDA (20 μg/rat, Sigma Aldrich, St. Louis, USA) was dissolved in saline for intracranial injection.
Injection of desipramine and 6-OHDA. The animals were injected with desipramine into the abdominal cavity (intraperitoneal injection) 30 min before 6-OHDA injection. 30 min after Desipramine injection, the animals were placed in a small acrylic cage that was coupled with an anesthesia machine that allowed them to breathe freely under gaseous anesthesia (2% isoflurane, Spartanburg, SC, USA). […] The animal fur of head was shaved with an electric clipper, and the skin was swabbed with iodine. All the surgical materials disinfected with 70% ethanol. Hamilton syringe barrel inner space was cleaned with distilled water and 70% ethanol. The Hamilton syringe was placed in the syringe holder. […] The three coordinates (AP: −5.6, LM: 2.0, and DV: −7.6) on the manipulator (in mm) were read and used as the starting point. […]

CC(O)C(=O)[O-].CC(O)C(=O)[O-].[Ca+2] (centres unmarked) [calcium lactate]
hypoxia inducible factor-1α (HIF-1α), Western blot [1]: decreased
damaged brain tissue [2]: Recovery
inflammatory reaction, which exacerbates Alzheimer's and stroke [2]: greatly reduced
microglia infiltration (Iba-1) in brain [2]: reduction
dopaminergic neuron (tyrosine hydroxylase staining) (6-OHDA injected rats): Recovery
